Here are results for two compounds from PMC6073232 (International Journal of Molecular Sciences, 2018).

The target in assay [1] is T1, TRESK (K2P18.1) (Mus musculus, UniProt Q6VV64).
T1 construct: gene Kcnk18; mouse TRESK (NM_207261) in HEK-293 cells
T1 sequence (Q6VV64 1-394): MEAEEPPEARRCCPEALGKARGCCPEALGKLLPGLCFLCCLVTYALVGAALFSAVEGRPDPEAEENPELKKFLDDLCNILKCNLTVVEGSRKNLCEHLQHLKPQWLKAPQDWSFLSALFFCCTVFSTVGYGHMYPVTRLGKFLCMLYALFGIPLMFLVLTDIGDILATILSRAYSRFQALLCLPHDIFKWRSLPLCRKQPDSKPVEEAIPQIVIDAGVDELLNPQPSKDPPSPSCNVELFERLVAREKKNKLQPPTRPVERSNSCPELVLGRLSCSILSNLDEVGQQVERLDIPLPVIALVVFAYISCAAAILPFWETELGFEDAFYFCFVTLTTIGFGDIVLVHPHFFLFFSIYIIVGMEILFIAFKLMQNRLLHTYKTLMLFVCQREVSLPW
In words: whole-cell patch clamp, % inhibition at […]. The format is cell-based. Background: The patch-clamp technique gives a direct electrical read-out from membranes.

Assay [2] addresses T1, TRESK (K2P18.1). In words: whole-cell patch clamp (abstract prints IC50 […]). The assay is classed as cell-based.

Broadly, the inhibition is how much of the control response was suppressed. In assay [1], `COc1ccc(CCN(C)CCCC(C#N)(c2cc(OC)c(OC)c(OC)c2)C(C)C)cc1OC` (centres unmarked) [D600] returned an inhibition at 20 µM of 45 ± 6%.
A word on the IC50: it is the midpoint of a concentration-inhibition curve. `COC(=O)C1=C(C)NC(C)=C(C(=O)OC)C1c1ccccc1[N+](=O)[O-]` [nifedipine] had an IC50 in assay [2] of 63.8 µM.
